# Paper PMC7731115, “Cytotoxic, Apoptosis-Inducing Activities, and Molecular Docking of a New Sterol from Bamboo Shoot Skin Phyllostachys heterocycla var. pubescens” (Molecules, 2020)
# “And” between values parts separate entries of the source, which are not always exact repeats. Equal entries are not always repeated. Where two headings read alike, the source gives them in different places.
# Tests used:
# HepG2 = assay: MTT cytotoxic assay, HepG2; assay type: cell-based; conditions: Homo sapiens, read-out: IC50 ± SD HepG2
# Experimental: (§1) Crude extracts, in addition to six sterol compounds, were screened for their cytotoxic activities against four cancerous cell lines: HepG2, Hela, A549, and MCF-7 and a noncancerous breast (MCF-10A) cell line to test their safety using the MTT assay (Table 2). […] After fractionation and isolation of the pure compounds, six compounds were tested for their cytotoxicity. […] Additionally, it was safe against the normal cells, with IC50 ≥ 50.
# (§2) Crude extract, together with six of the identified sterols, were screened for their cytotoxic activities against liver HepG2, breast MCF-7, and normal cells (MCF-10A), as well. According to the standard cell culture work, each cell line was cultured in a proper complete medium. The treatment of cells was performed with the crude extract and then, with the identified compounds for a 48-h incubation, and Fluorouracil (5-FU) was used as the standard. Percent of cell viability was calculated by the following formula: % cell viability = (Mean absorbance of tested compound)/(Mean absorbance in control) × 100. Then, IC50 in µM was calculated using GraphPad Prism 7.
# MCF-7 = assay: MTT cytotoxic assay, MCF-7; assay type: cell-based, human
# Experimental: as §1, §2
# Normal Cells MCF-10A = assay: MTT cytotoxic assay, normal cells MCF-10A; assay type: cell-based; conditions: Homo sapiens, pure compounds, 48-h incubation, n = 3, read-out: IC50 ± SD Normal Cells MCF-10A
# Experimental: as §1, §2
# MCF-7 cancer cells [1] = assay: Annexin V/PI flow cytometric apoptosis/necrosis assessment; assay type: cell-based, human; conditions: MCF-7, treated at IC50 = 25.92 μM, 48 h
# Text: (§3) Moreover, MCF-7 cancer cells after compound 1 treatment were subjected to DNA flow cytometry to analyse the cell cycle kinetics to determine the compound’s phase interference with the cell cycle. The study of the cell cycle is a crucial test showing the cell accumulation percentage in each growth phase with cytotoxic substances after treatment. […] Consequently, compound 1 induced pre-G1 and G2/M-phase cell cycle arrest and blocked the progression of MCF-7 cancer cells that deteriorated the genetic material.
# (§4) Cell cycle analysis, as well as apoptotic assays, were performed in detail according to the previously described methods. Full methodologies of flow cytometric assays were provided in the Supplementary File.
# MCF-7 cancer cells [2] = assay: DNA content flow cytometry cell cycle analysis; assay type: cell-based, human; conditions: MCF-7, treated at IC50 = 25.92 μM, 48 h
# Text: as §3, §4
# P53 gene = assay: RT-PCR mRNA expression in MCF-7 cells, P53; assay type: cell-based, human; conditions: MCF-7, treated at IC50 = 25.92 μM, 48 h
# Experimental: (§5) The results are in accordance with the proposed apoptotic pathway for anticancer activity.
# (§6) At the end of treatments, cells were collected, and total RNA was extracted using a RNeasy® Mini Kit (Qiagen, Hilden, Germany) according to the manufacturer’s instructions. cDNA synthesis was performed with 500 ng of RNA using the i-Script cDNA synthesis kit (Bio-Rad, Hercules, CA, USA) following the manufacturer’s instructions. Real-time (RT)-PCR reactions consisted of 25-µL Fluocycle®II SYBR® (Euroclone, Milan, Italy), 1.5 µL of both 10-µM forward and reverse primers, 3-µL cDNA, and 19 µL of H2O. All reactions were performed for 35 cycles using this temperature profile: 95 °C for 5 m (initial denaturation); 95 °C for […] (Denaturation), 55 °C for […] (Annealing), and 72 °C for […] (Extension). Then, The cycle threshold (Ct) values were collected and the relative folds of changes between all the samples. Primer used were listed in the Supplementary Files.
# BAX = assay: RT-PCR mRNA expression in MCF-7 cells, BAX; assay type: cell-based, human; conditions: MCF-7, treated at IC50 = 25.92 μM, 48 h
# Experimental: as §5, §6
# antiapoptotic Bcl-2 gene = assay: RT-PCR mRNA expression in MCF-7 cells, Bcl-2; assay type: cell-based, human; conditions: MCF-7, treated at IC50 = 25.92 μM, 48 h
# Experimental: as §5, §6
# caspase 3 = assay: RT-PCR mRNA expression in MCF-7 cells, caspase 3; assay type: cell-based, human; conditions: MCF-7, treated at IC50 = 25.92 μM, 48 h
# Experimental: as §5, §6
# caspase 8 = assay: RT-PCR mRNA expression in MCF-7 cells, caspase 8; assay type: cell-based, human; conditions: MCF-7, treated at IC50 = 25.92 μM, 48 h
# Experimental: as §5, §6
# caspase 9 = assay: RT-PCR mRNA expression in MCF-7 cells, caspase 9; assay type: cell-based, human; conditions: MCF-7, treated at IC50 = 25.92 μM, 48 h
# Experimental: as §5, §6
# Hela = assay: MTT cytotoxic assay, Hela; assay type: cell-based; conditions: Homo sapiens
# Experimental: as §1, §2
# A549 = assay: MTT cytotoxic assay, A549; assay type: cell-based; conditions: Homo sapiens, read-out: IC50 ± SD A549
# Experimental: as §1, §2
# [3] = HepG2, pure compounds, MTT, 48-h incubation, n = 3
# [4] = Homo sapiens, MCF7, 48 h, pure compounds, MTT, 48-h incubation, n = 3, read-out: IC50 ± SD MCF-7
# [5] = pure compounds, MTT, 48-h incubation, n = 3, read-out: IC50 ± SD Hela
# [6] = A549, pure compounds, MTT, 48-h incubation, n = 3
compound,measurement,setting,value
"CCCCCC/C=C\C/C=C\CCCCCCC(=O)OC[C@H]1O[C@@H](O[C@H]2CCC3(C)C(=CCC4C3CCC3(C)C(C(C)CCC(CC)C(C)C)CCC43)C2)[C@H](O)[C@@H](O)[C@@H]1O (stereo partly drawn) [Compound 1, (6’-O-octadeca-8″,11″-dienoyl)-sitosterol-3-O-β-D-glucoside]",IC50,HepG2; [3],27.5 ± 1.04 µM
same,IC50,MCF-7; [4],25.8 µM
same,LogIC50 (Figure 4 curve fit),"MCF-7; MCF-7, nonlinear regression dose-inhibition curve fit",1.412
same,IC50,"MCF-7; pure compounds, MTT, 48-h incubation, n = 3, read-out: IC50 ± SD MCF-7",25.8 ± 1.04 µM
same,IC50,Normal Cells MCF-10A,≥ 50 µM
same,"apoptotic cell death, fold vs control",MCF-7 cancer cells [1],32.6 fold
same,"cell death via necrosis, fold vs control",MCF-7 cancer cells [1],10.8 fold
same,"apoptotic cell death, total apoptosis",MCF-7 cancer cells [1]; control 0.51%,16.63%
same,cell death via necrosis,MCF-7 cancer cells [1]; control 0.86%,9.31%
same,pre-G1 cell population,MCF-7 cancer cells [2]; control 1.37%,25.94%
same,G2/M cell population,MCF-7 cancer cells [2]; control 7.46%,26.74%
same,cell population in S,MCF-7 cancer cells [2]; control 34.26%,24.95%
same,"P53 gene mRNA level, fold change",P53 gene,≈ 3.55 fold and 3.55± 0.28 fold
same,"BAX mRNA level, fold change",BAX,3.77 fold and 3.77± 0.37 fold
same,"Bcl-2 mRNA level, fold change",antiapoptotic Bcl-2 gene,≈ 0.81 fold and 0.81± 0.05 fold
same,"caspase 3 mRNA level, fold change",caspase 3,≈ 5.01 fold and 5.01± 0.27 fold
same,"caspase 8 mRNA level, fold change",caspase 8,1.9 fold and 1.9± 0.13 fold
same,"caspase 9 mRNA level, fold change",caspase 9,5.44 fold and 5.44± 0.49 fold
"CC[C@H](CC[C@@H](C)[C@H]1CC[C@H]2[C@@H]3CCC4=CC(=O)CC[C@]4(C)[C@H]3CC[C@]12C)C(C)C [Compound 2, stigmast-4-en-3-one]",IC50,"Hela; 48 h, read-out: IC50 ± SD Hela",32.5 ± 0.89 µM
same,IC50,"A549; A549, 48 h",45.6 ± 0.75 µM
same,IC50,"MCF-7; Homo sapiens, MCF7, 48 h, read-out: IC50 ± SD MCF-7, pure compounds, MTT, 48-h incubation, n = 3",≥ 50 µM
same,IC50,Normal Cells MCF-10A,≥ 50 µM
"CCC(CC[C@@H](C)[C@H]1CC[C@H]2[C@@H]3CC(O)C4=CC(=O)CC[C@]4(C)[C@H]3CC[C@]12C)C(C)C (stereo partly drawn) [Compound 3, 6-β-hydroxy-24-ethyl-cholest-4-en-3-one]",IC50,Hela; [5],≥ 50 µM
same,IC50,A549; [6],49.9 ± 1.03 µM
same,IC50,MCF-7; [4],≥ 50 µM
same,IC50,Normal Cells MCF-10A,≥ 50 µM
"CC[C@H](CC[C@@H](C)[C@H]1CC[C@H]2[C@@H]3CC=C4C[C@@H](O)CC[C@]4(C)[C@H]3CC[C@]12C)C(C)C [Compound 5, β-sitosterol]",IC50,"HepG2; HepG2, 48 h",≥ 50 µM
same,IC50,"Hela; 48 h, read-out: IC50 ± SD Hela",42.3 ± 1.02 µM
same,IC50,"A549; A549, 48 h",≥ 50 µM
same,IC50,"MCF-7; Homo sapiens, MCF7, 48 h, read-out: IC50 ± SD MCF-7",≥ 50 µM
same,IC50,Normal Cells MCF-10A,≥ 50 µM
"O=c1[nH]cc(F)c(=O)[nH]1 [Compound 5-FU, 5-fluorouracil, reference compound]",IC50,HepG2; [3],15.8 ± 0.28 µM
same,IC50,Hela; [5],13 ± 0.65 µM
same,IC50,A549; [6],7.47 ± 0.43 µM
same,IC50,MCF-7; [4],27 ± 0.76 µM
same,IC50,Normal Cells MCF-10A,≥ 50 µM
"CCCCCCCCCCCCCCCC(=O)OCC1OC(OC2CCC3(C)C(=CCC4C3CCC3(C)C(C(C)CCC(CC)C(C)C)CCC43)C2)C(O)C(O)C1O [Compound 6, (6’-O-palmitoyl)-sitosterol-3-O-β-D-glucoside]",IC50,HepG2; [3],42.5 ± 1.71 µM
same,IC50,MCF-7; [4],≥ 50 µM
same,IC50,Normal Cells MCF-10A,≥ 50 µM
"CCC(CCC(C)C1CCC2C3CC=C4CC(OC5OC(CO)C(O)C(O)C5O)CCC4(C)C3CCC12C)C(C)C [Compound 7, β-sitosterol-3-O-β-D-glucoside]",IC50,HepG2; [3],≥ 50 µM
same,IC50,MCF-7; [4],38.1 ± 0.98 µM
same,IC50,Normal Cells MCF-10A,≥ 50 µM
